Results published in ChEMBL document CHEMBL1129695, “Synthesis and structure-activity relationships of 6-substituted androst-4-ene analogs as aromatase inhibitors” (J Med Chem, 1996).

Legend:
[1] = target: T1, Aromatase (Homo sapiens, UniProt P11511)
T1 sequence (P11511 whole entry): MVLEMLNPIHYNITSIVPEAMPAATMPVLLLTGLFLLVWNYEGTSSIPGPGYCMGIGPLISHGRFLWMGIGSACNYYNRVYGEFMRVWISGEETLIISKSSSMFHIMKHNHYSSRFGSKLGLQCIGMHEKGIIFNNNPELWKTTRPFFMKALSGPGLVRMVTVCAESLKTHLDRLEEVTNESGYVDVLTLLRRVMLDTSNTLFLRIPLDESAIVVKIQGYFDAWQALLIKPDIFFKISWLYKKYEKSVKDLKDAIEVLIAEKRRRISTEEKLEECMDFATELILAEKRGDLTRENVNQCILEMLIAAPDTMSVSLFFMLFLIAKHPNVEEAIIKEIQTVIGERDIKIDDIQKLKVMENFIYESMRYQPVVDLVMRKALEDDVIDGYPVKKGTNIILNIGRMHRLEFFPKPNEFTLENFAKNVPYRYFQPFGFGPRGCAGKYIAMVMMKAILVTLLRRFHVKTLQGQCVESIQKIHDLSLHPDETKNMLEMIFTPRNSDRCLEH
Description: In vitro inhibition of cytochrome P450 19A1 in human placental microsomes

[2] = target: T1, Aromatase; remark: listed apart in the source
Description: Apparent inhibition constant (Ki) against Cytochrome P450 19A1

Row | SMILES | IC50 [1] [nM] | Ki [2] [nM]
1 | CC[C@@H]1CC2C(CCC3(C)C(O)CCC23)C2(C)CCCC=C12 (some centres undefined) | 3300 | 340
2 | C[C@@H]1CC2C3CCC(=O)C3(C)CCC2C2(C)CCCC=C12 (some centres undefined) | 49 | 5.3
3 | C[C@@H]1CC2C(CCC3(C)C(O)CCC23)C2(C)CCCC=C12 (some centres undefined) | 1600 | 140
4 | C[C@H]1CC2C(CCC3(C)C(O)CCC23)C2(C)CCCC=C12 (some centres undefined) | 3700 | 380
5 | CC(=O)O[C@@H]1CC2C3CCC(=O)C3(C)CCC2C2(C)CCCC=C12 (some centres undefined) | 260 | 24
6 | CC[C@H]1CC2C3CCC(=O)C3(C)CCC2C2(C)CCCC=C12 (some centres undefined) | 110 | 43
7 | CCCCCCCC[C@@H]1CC2C(CCC3(C)C(O)CCC23)C2(C)CCCC=C12 (some centres undefined) | > 50000 | 
8 | C[C@H]1CC2C3CCC(=O)C3(C)CCC2C2(C)CCCC=C12 (some centres undefined) | 37 | 3.1
9 | CC[C@H]1CC2C(CCC3(C)C(O)CCC23)C2(C)CCCC=C12 (some centres undefined) | 1300 | 180
10 | CC[C@@H]1CC2C3CCC(=O)C3(C)CCC2C2(C)CCCC=C12 (some centres undefined) | 320 | 43
11 | CCCCC[C@H]1CC2C3CCC(=O)C3(C)CCC2C2(C)CCCC=C12 (some centres undefined) | 9000 | 400
12 | CO[C@@H]1CC2C3CCC(=O)C3(C)CCC2C2(C)CCCC=C12 (some centres undefined) | 130 | 12
13 | CCCCC[C@@H]1CC2C(CCC3(C)C(O)CCC23)C2(C)CCCC=C12 (some centres undefined) | > 50000 | 100000
14 | CCC[C@@H]1CC2C3CCC(=O)C3(C)CCC2C2(C)CCCC=C12 (some centres undefined) | 440 | 51
15 | CCCCC[C@@H]1CC2C3CCC(=O)C3(C)CCC2C2(C)CCCC=C12 (some centres undefined) | 12000 | 1200
16 | CC(=O)O[C@H]1CC2C3CCC(=O)C3(C)CCC2C2(C)CCCC=C12 (some centres undefined) | 160 | 18
17 | CCCCCCCC[C@H]1CC2C3CCC(=O)C3(C)CCC2C2(C)CCCC=C12 (some centres undefined) | > 50000 | 4100
18 | CCCCC[C@H]1CC2C(CCC3(C)C(O)CCC23)C2(C)CCCC=C12 (some centres undefined) | > 50000 | 44000
19 | CO[C@H]1CC2C3CCC(=O)C3(C)CCC2C2(C)CCCC=C12 (some centres undefined) | 120 | 12
20 | CCCCCCCC[C@H]1CC2C(CCC3(C)C(O)CCC23)C2(C)CCCC=C12 (some centres undefined) | > 50000 | 
21 | CC12CCCC=C1CCC1C2CCC2(C)C1CC[C@@H]2O (some centres undefined) | 360 | 45
22 | CCC[C@H]1CC2C3CCC(=O)C3(C)CCC2C2(C)CCCC=C12 (some centres undefined) | 230 | 30
23 | CCCCCCCC[C@@H]1CC2C3CCC(=O)C3(C)CCC2C2(C)CCCC=C12 (some centres undefined) | > 50000 | 2600
